For one compound, pKb results are on record in ChEMBL document CHEMBL1155857, “Benzodiazepine ligands can act as allosteric modulators of the Type 1 cholecystokinin receptor” (Bioorg Med Chem Lett, 2008).

Structures are written as SMILES.

For the test, the target named is T1, Cholecystokinin receptor type A (Rattus norvegicus) (UniProt P30551).
T1 sequence (whole entry): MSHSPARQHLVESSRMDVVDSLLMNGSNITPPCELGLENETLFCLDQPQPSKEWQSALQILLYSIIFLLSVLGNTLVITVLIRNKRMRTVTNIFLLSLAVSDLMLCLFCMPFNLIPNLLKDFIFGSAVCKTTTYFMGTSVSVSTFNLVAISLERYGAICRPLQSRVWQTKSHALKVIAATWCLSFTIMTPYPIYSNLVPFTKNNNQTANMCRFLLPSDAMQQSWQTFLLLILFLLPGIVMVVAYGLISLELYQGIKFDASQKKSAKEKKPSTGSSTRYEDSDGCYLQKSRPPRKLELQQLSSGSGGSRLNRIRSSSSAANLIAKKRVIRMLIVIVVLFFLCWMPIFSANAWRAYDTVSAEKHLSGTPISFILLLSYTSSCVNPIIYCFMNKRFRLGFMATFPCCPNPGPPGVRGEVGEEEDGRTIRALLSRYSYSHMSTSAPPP
The experiment in a line: Displacement of [125I]CCK from rat CCK1 receptor expressed in CHO cells. It is filed as cell-based.

Compound `CN1C(=O)[C@@H](NC(=O)c2cc3ccccc3[nH]2)N=C(c2ccccc2)c2ccccc21` returned a pKb of 8.35.
